Experiments:
[1] = molecular target: Fibroblast growth factor receptor 3 (Homo sapiens) (UniProt P22607); details: Compound concentration 20.0 uM, Protein concentration 2.0 uM, Result type QC Liability
Description: Thermal Shift Assay. Domain: start/stop: P449-E759

Peregrin (Homo sapiens) = molecular target: T1, Peregrin (Homo sapiens) (UniProt P55201); details: Compound concentration 20.0 uM, Protein concentration 2.0 uM, Result type QC Liability
T1 sequence (whole entry): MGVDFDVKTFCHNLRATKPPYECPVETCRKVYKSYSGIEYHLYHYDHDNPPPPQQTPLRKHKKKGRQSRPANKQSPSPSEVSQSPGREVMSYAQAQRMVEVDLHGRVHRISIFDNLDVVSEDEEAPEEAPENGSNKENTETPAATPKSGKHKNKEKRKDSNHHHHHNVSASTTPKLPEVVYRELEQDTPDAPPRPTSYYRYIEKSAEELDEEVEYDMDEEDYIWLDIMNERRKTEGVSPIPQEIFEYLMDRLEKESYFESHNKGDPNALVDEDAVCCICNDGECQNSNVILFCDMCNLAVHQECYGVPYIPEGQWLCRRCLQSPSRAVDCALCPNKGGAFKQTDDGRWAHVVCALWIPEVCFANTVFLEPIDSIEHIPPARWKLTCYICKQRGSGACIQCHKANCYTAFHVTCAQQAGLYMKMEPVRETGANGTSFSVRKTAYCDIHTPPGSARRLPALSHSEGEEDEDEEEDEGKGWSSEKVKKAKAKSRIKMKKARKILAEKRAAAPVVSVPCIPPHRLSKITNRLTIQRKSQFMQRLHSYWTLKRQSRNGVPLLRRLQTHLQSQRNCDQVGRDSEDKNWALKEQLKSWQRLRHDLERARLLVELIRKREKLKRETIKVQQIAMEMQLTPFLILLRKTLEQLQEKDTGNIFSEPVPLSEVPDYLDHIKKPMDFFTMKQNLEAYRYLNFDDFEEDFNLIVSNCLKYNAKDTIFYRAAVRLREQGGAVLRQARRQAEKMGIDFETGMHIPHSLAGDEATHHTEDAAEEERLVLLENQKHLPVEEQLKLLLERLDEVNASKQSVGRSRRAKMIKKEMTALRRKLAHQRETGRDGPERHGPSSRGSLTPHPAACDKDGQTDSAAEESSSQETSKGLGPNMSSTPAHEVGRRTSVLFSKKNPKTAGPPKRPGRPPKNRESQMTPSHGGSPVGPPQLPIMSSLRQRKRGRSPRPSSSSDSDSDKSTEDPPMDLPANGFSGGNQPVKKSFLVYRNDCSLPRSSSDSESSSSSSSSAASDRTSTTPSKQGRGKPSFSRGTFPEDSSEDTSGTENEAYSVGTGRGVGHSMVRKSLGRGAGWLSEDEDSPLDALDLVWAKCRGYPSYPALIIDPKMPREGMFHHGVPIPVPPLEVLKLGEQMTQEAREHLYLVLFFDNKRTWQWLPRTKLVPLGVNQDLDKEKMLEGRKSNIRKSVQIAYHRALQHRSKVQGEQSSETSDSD

Fibroblast growth factor receptor 3 (Homo sapiens), sequence (P22607 23-806 limits assumed): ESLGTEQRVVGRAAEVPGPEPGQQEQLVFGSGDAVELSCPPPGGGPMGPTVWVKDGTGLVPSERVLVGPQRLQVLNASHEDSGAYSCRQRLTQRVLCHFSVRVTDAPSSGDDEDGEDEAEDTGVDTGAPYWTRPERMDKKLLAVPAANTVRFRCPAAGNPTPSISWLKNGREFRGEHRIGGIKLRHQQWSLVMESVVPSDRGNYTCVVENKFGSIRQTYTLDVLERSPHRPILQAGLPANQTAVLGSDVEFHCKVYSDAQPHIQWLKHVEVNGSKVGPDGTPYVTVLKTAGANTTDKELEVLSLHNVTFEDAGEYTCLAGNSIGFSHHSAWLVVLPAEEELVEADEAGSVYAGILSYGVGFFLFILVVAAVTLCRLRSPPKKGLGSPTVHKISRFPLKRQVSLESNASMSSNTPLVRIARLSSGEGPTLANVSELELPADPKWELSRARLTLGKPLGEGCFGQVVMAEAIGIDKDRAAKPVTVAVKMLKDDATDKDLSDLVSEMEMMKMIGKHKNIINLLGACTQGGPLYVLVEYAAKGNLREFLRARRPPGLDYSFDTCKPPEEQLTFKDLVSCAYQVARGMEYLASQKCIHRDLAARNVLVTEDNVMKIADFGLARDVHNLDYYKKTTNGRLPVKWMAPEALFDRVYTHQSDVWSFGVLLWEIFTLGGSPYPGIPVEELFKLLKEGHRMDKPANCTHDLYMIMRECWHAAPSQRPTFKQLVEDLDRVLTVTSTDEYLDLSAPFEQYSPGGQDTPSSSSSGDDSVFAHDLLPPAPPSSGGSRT

Compound | ΔTm [1] | ΔTm (Peregrin (Homo sapiens)) | ΔTm ([1]; tested as the 2H-labelled form) [°C] | ΔTm (Peregrin (Homo sapiens); tested as the 2H-labelled form) [°C]
CCN1C(=O)C(c2cccc(C(=O)O)c2)C(=O)N(c2ccccc2)c2cc(C(F)(F)F)ccc21 (stereo not drawn) | 0.62 °C | -1.55 °C |  | 
COc1ccc(C(F)(F)F)cc1NC(=O)Nc1ccc(Oc2cc(C)nc(N)n2)c2ccccc12 | 2.41 °C | 1.59 °C |  | 
CCS(=O)(=O)Nc1cccc(Oc2cc(F)cc(Nc3ccc(I)cc3F)c2NS(=O)(=O)C2CC2)c1 | -1.54 °C | -1.34 °C |  | 
Cc1nnc2n1-c1sc3c(c1C(c1ccccc1Cl)=NC2)CC(C(=O)N1CCOCC1)C3 (stereo not drawn) | 0.52 °C | -1.83 °C |  | 
CC(=O)c1ccc2c(c1)/C(=C(/NC1CCN(C)CC1)c1ccc3c(c1)OCO3)C(=O)N2 | 0.39 °C | -1.44 °C |  | 
CCc1ccc(N(CC(C)C)S(=O)(=O)c2ccc(OCC3CCOCC3)c(CO)c2)cc1 | 0.5 °C | -0.2 °C |  | 
Cc1cc(CN)cc(C)c1-c1ncn(C)c1-c1cncn1C | 0.44 °C | -1.81 °C |  | 
CS(=O)(=O)c1cc(C2(NC(=O)c3cncc4c3cnn4-c3ccc(F)cc3)CC2)ccn1 | 0.85 °C | -2.04 °C |  | 
COc1cc(C(=O)NC2CCN(C)CC2)ccc1Nc1ncc(C(F)(F)F)c(NCc2ccc(C)cc2N(C)S(C)(=O)=O)n1 | 2.55 °C | -1.4 °C |  | 
CCn1c(CNC(=O)c2nc(Cl)cnc2N)[n+](CC)c2ccc(C(=O)N(C)CCN(C)C)cc21 | 0.5 °C | -1.87 °C |  | 
CN(C)C/C=C/C(=O)Nc1cccc(S(=O)(=O)N2CCC(NC(=O)c3n[nH]cc3NC(=O)c3c(Cl)cc(Cl)cc3Cl)CC2)c1 | 6.8 °C | -0.81 °C |  | 
Oc1c(CN2CCCC2)cc(COCc2ccccc2)c2cccnc12 | 0.61 °C | -2.08 °C |  | 
CC(C)(C)c1cc(NC(=O)c2csc(Nc3ccccn3)n2)no1 | 0.72 °C | -2.33 °C |  | 
Cc1cc(CN)cc(C)c1-c1ncn(C)c1-c1ccnc2cc(F)ccc12 | 0.85 °C | -2.14 °C |  | 
CC1(C)C[C@@H]1C(=O)N/C(=C\CCCCSC[C@H](N)C(=O)O)C(=O)O | 0.5 °C | -2.3 °C |  | 
COCCNC1CCC(Nc2cc(-c3csc(NCC4(C#N)CCOCC4)n3)c(Cl)cn2)CC1 (stereo not drawn) | 0.74 °C | 0.03 °C |  | 
Cc1cc2c(cc(C(=O)N[C@H](CO)c3ccc(S(=O)(=O)CC(=O)O)cc3)n2C)c(Cl)c1Cl | 0.16 °C | -3.03 °C |  | 
O=C(O)c1cc2cc(Cc3cccnc3)ccc2o1 | 0.96 °C | -2.16 °C |  | 
NC(=O)C1CCCc2c1[nH]c1ccc(Cl)cc21 (stereo not drawn) | 0.98 °C | -0.12 °C |  | 
COC(=O)c1sccc1S(=O)(=O)Nc1ccc(Nc2ccccc2)cc1OC | 0.39 °C | -1.04 °C |  | 
Cc1nc2ccc(Cl)cc2c(-c2ccccc2)c1CC(=O)O | 0.68 °C | -3.32 °C |  | 
COc1ccc2c(O[C@@H]3C[C@H]4C(=O)N[C@]5(C(=O)O)CC5/C=C\CCCCC[C@H](NC(=O)OC5CCCC5)C(=O)N4C3)cc(-c3csc(NC(=O)C(C)C)n3)nc2c1C (stereo partly drawn) | 1.07 °C [middle of 4 runs] | -1.17 °C [middle of 4 runs] |  | 
C=CC(=O)N1CCC[C@@H](n2nc(-c3ccc(Oc4ccccc4)cc3)c3c(N)ncnc32)C1 | -1.1 °C | -1.17 °C |  | 
C=CC[C@@H]1/C=C(\C)C[C@H](C)C[C@H](OC)[C@H]2O[C@@](O)(C(=O)C(=O)N3CCCC[C@H]3C(=O)O[C@H](/C(C)=C/[C@@H]3CC[C@@H](O)[C@H](OC)C3)[C@H](C)[C@@H](O)CC1=O)[C@H](C)C[C@@H]2OC | 0.4 °C | -3.28 °C |  | 
COCCCS(=O)(=O)c1cc(C)c(-c2ccc(F)c3c2CC[C@H]3Oc2ccc3c(c2)OC[C@H]3CC(=O)O)c(C)c1 | 0.81 °C | -4.61 °C |  | 
CC(C)c1nc2c(c3c1[C@H](c1ccc(C(F)(F)F)cc1)OC31CCOCC1)[C@H](O)CC(C)(C)C2 | 0.52 °C | -3.09 °C |  | 
Cn1cc(-n2cnc3c(NCc4nc5cc(Cl)c(Cl)cc5[nH]4)nc(N4CCOCC4)nc32)cn1 | 0.69 °C | -0.07 °C |  | 

Compound | ΔTm [1] | ΔTm (Peregrin (Homo sapiens)) | ΔTm ([1]; tested as the 2H-labelled form) [°C] | ΔTm (Peregrin (Homo sapiens); tested as the 2H-labelled form) [°C]
CCn1c(CNC(=O)c2ncc(C)nc2N)[n+](CC)c2ccc(C(=O)N(C)CCN(C)C)cc21 | 0.52 °C | -1.78 °C |  | 
Cc1ncsc1-c1ccc(CNC(=O)[C@@H]2C[C@@H](O)CN2C(=O)[C@@H](NC(=O)C2(F)CC2)C(C)(C)C)c(OCCOc2ccc(CN3CCN(c4cc(-c5ccccc5O)nnc4N)CC3)cc2)c1 | -0.75 °C | 5.55 °C |  | 
CN1CCN(C(=O)c2ccc(N(C)c3ncc(C(F)(F)F)c(N[C@@H]4CCC[C@@H]4C(N)=O)n3)cc2)CC1 | 0.46 °C | -2.51 °C |  | 
COc1cc(F)ccc1-c1ncnc(Nc2cccc(C[S@](C)(=N)=O)c2)n1 | 1.31 °C | -1.17 °C |  | 
Cn1nc(-c2ccc(C(N)=O)cc2)c2ccccc2c1=O | 1.06 °C | -1.74 °C |  | 
CNC(=O)c1nnc(NC(=O)C2CC2)cc1Nc1cccc(-c2ncn(C)n2)c1OC |  |  | 1.05 | -1.46
CC(C)c1cnn2c(NCc3ccccc3)cc(NCCCCCCN)nc12 | 0.86 °C | -0.13 °C |  | 
CNC(=O)c1ccc(C)c(-n2c(C)cc(OCc3ccc(F)cc3F)c(Br)c2=O)c1 | -1.16 °C | -1.84 °C |  | 
CCOCCn1cc(C(=O)Nc2ccc(-n3nc(-c4cccnc4)cc3C(F)(F)F)cn2)ccc1=O | 0.41 °C | -3.33 °C |  | 
Cc1cc(OCCC(C)(C)O)cc(C)c1-c1ccc(F)c2c1CC[C@H]2Oc1ccc2c(c1)OC[C@H]2CC(=O)O | -2.24 °C | -15.3 °C |  | 
O=C1CN(c2ccccc2F)C(NCCN2CCOCC2)=C1c1nc2cc(Br)ccc2c(=O)[nH]1 | 0.53 °C | -2.29 °C |  | 
COc1cc(O)c(C(CC(=O)N2C[C@H](C)C[C@H](C)C2)c2ccc3c(c2)OCO3)c(OC)c1 (stereo partly drawn) | 0.97 °C | 1.95 °C |  | 
COc1cc(-c2cncc(-c3cnn(C4CCNCC4)c3)c2)cc(OC)c1OC | 0.93 °C | -0.73 °C |  | 
CC(=O)c1c(C)c2cnc(Nc3ccc(N4CCN(CCCCNC(=O)COc5cccc6c5C(=O)N(C5CCC(=O)NC5=O)C6=O)CC4)cn3)nc2n(C2CCCC2)c1=O (stereo not drawn) | 0.48 °C | -1.22 °C |  | 
CNC(=O)c1c(F)cccc1Nc1nc(Nc2cc3c(cc2OC)CCN3C(=O)CN(C)C)nc2[nH]ccc12 | 0.2 °C | -2.03 °C |  | 
O=C(NCCN1CCC2(CC1)C(=O)NCN2c1cccc(F)c1)c1ccc2ccccc2c1 | 0.36 °C | -3.2 °C |  | 
C[C@@H]1CC[C@@]2(OC1)O[C@H]1[C@@H](O)[C@H]3[C@@H]4CC[C@H]5C[C@@H](O[C@@H]6O[C@H](CO)[C@H](O[C@@H]7O[C@H](CO)C(O)[C@H](O[C@@H]8OC[C@@H](O)[C@H](O)[C@H]8O)[C@H]7O[C@@H]7O[C@H](CO)[C@H](O)[C@H](O[C@@H]8O[C@H](CO)[C@@H](O)[C@H](O)[C@H]8O)[C@H]7O)[C@H](O)[C@H]6O)[C@H](O)C[C@]5(C)[C@H]4CC[C@]3(C)[C@H]1[C@@H]2C (stereo partly drawn) | 0.72 °C | -1.35 °C |  | 
CCN(C(=O)CO)[C@H]1CN(/C(=N\C#N)Nc2cccc(OC(F)F)c2)N=C1c1ccc(Cl)c(Cl)c1 | 0.47 °C | -1.11 °C |  | 
Cc1cc(=O)n(C)c2cc(N3C(=O)CC[C@H](NS(=O)(=O)CC(C)C)[C@H]3c3ccc(Cl)cc3)ccc12 | 0.86 °C | -0.8 °C |  | 
N=C(N)NCCC[C@H](NC(=O)C(c1ccccc1)c1ccccc1)C(=O)NCc1ccc(CNC(N)=O)cc1 | 0.81 °C | -1.9 °C |  | 
CNC(=O)c1c[nH]c2ccc(Nc3nccc(-c4ccccn4)n3)cc12 | 0.22 °C | -0.15 °C |  | 
OC(c1ccc(-c2ccc(CN3CCN(Cc4ccncc4)CC3)cc2)c(F)c1)(C(F)(F)F)C(F)(F)F | 0.64 °C | -2.07 °C |  | 
CC(=O)O[C@H]1C(=O)[C@@]2(C)[C@H]([C@H](OC(=O)c3ccccc3)[C@]3(O)C[C@H](OC(=O)[C@H](O)[C@@H](NC(=O)c4ccccc4)c4ccccc4)C(C)=C1C3(C)C)[C@]1(OC(C)=O)CO[C@@H]1C[C@@H]2O | 0.44 °C | -2.68 °C |  | 
O=C(NCCS(=O)(=O)c1ccc(C(F)(F)F)cn1)c1ccc(Cl)cc1 | 0.38 °C | -0.99 °C |  | 
Cc1[nH]c2c(N3CCCCC3)c(-c3ccccc3)nn2c(=O)c1-c1ccc(O)cc1 | 0.67 °C | -2.87 °C |  | 
COP(=O)(CCC(N)C(=O)O)Oc1cccc(CC(=O)O)c1 (stereo not drawn) | 0.51 °C | -1.49 °C |  | 
CCN1CCN(Cc2ccc(C(=O)Nc3ccc(C)c(Oc4ccc5c(c4)CC(=O)N5)c3)cc2C(F)(F)F)CC1 | 3.22 °C | -1.47 °C |  | 
